Results: EPA's ToxValDB 9.5 (doi:10.2903/j.efsa.2010.1718)
Values after ≈ are worked out from the molar mass of the structure shown.

Tests used:
Bibionidae = settings: chronic/long-term; duration: 28 days
Aphidius rhopalosiphi = assay: LR50; higher = less toxic; settings: not reported; mortality
Apis mellifera = settings: acute; duration: 48 hours; dermal; mortality
Oryctolagus sp. = settings: reproduction developmental; body weight
Daphnia magna = settings: chronic/long-term; duration: 21 days; reproduction
Pimephales promelas = settings: chronic/long-term; duration: 265 days; growth
Lepomis macrochirus = settings: acute; duration: 96 hours; mortality

Row | SMILES | NOEC (Tagia sp.; chronic/long-term, duration: 56 days) [mg/kg] | NOEC (Bibionidae) [mg/L] | LR50 (Aphidius rhopalosiphi) [g/ha] | LD50 (Apis mellifera) [µg/piece] | NOAEL (Oryctolagus sp.) [mg/kg-day] | NOEC (Anas platyrhynchos; reproductive) [mg/kg-day] | LC50 (Anas platyrhynchos; short-term, oral, feed, mortality) [mg/kg-day] | LD50 (Rattus norvegicus; acute, oral, mortality) [mg/kg-day] | NOEL (Rattus norvegicus; chronic) [mg/kg-day] | LOAEL (Rattus norvegicus; chronic, duration: 2 years, histopathology: nonneoplastic) [mg/kg-day] | NOAEL (Rattus norvegicus; reproduction developmental, no effects) [mg/kg-day] | NOEC (Daphnia magna) [mg/L] | LC50 (Colinus virginianus; acute, oral, diet, mortality) [mg/kg-day] | LD50 (Colinus virginianus; acute, oral, mortality) [mg/kg-day] | NOEC (Colinus virginianus; reproduction developmental) [mg/kg-day] | NOEC (Pimephales promelas) [mg/L] | LC50 (Tagia sp.; acute, duration: 14 days, mortality) [mg/kg] | LC50 (Lepomis macrochirus) [µg/mL]
1 | CC(Oc1ccc(Oc2ccc(Cl)cc2Cl)cc1)C(=O)O (stereo not drawn) [Diclofop] | 100 | 10 |  |  |  |  |  |  |  |  |  |  |  |  |  |  |  | 
2 | COC(=O)C(C)Oc1ccc(Oc2ccc(Cl)cc2Cl)cc1 (racemic) [(+-)-Diclofop-methyl] |  |  | 30.1 | > 100 | 0.3 | 25 | > 1100 | 512 | 7.8 | 0.2 | 3 | 0.081 | > 2880 | > 2250 | 20 | 0.015 | > 1000 | 0.15 (≈ 0.44 µM)
